In patent US20220313620A1, “COMPOSITION FOR PREVENTING AND TREATING TAUOPATHIES” (SERVICIO ANDALUZ DE SALUD, priority 2019, published 2022):

How the values were obtained:
[1] = tested on: Cyclin Dependent Kinase 5 (CDK5); assay: Hippocampal CDK5, p35 and p25 protein levels (western blot) after 10 days of oral drinking; type: in vivo, Wistar rats; conditions: oral by drinking 100 mg/Kg for 10 days, hippocampus, FIG. 8A
Procedure: Animal experimental procedures were carried out in accordance with the European Communities directive 2010/63/EU and Spanish legislation (Real Decreto 53/2013). The protocol was approved by the Research and approved by Ethics Committee for Animal Experiments of the University of Malaga, Spain. In accordance with the ARRIVE guidelines, all efforts were made to minimize animal suffering and to reduce the number of animals used per experimental group. Chronic drinking experiments on Wistar rats were performed on 20 male rats. All adult rats, ageing 2 months (≈300 g of body weight), were provided by Charles River Laboratories (Barcelona, Spain). The animals were housed individually under a standard 12 h light-dark cycle in a room with temperature and humidity control. Water and rat chow pellets were provided ad libitum throughout the course of the present study.
Caromax®-D-Pinitol (3-O-methyl-d-chiro-inositol, DPIN, 98% purity) and Caromax®-D-Chiro-inositol (cis-1,2,3-trans-3,5,6-cyclohexanehexol, DCI) were provided by Euronutra SL (Málaga, Spain). They were dissolved in water to orally daily administration by drinking and/or gavage at dose of 100 mg/Kg of body weight (BW) in a 1 ml/kg of BW volume to Zucker and Wistar rats for 4 weeks (28 days) and 10 days, respectively (FIG. 1). During the drinking treatments, the concentration of inositols in the water were updated considering the daily increase of BW of the rats and the possible loss of water by evaporation.
Brain extract. […]
Western Blot Analysis. […] Bands were quantified by densitometric analysis using ImageJ software (Rasband, WS, ImageJ, US National Institutes of Health, Bethesda, Md., USA). […] The results were expressed as the protein/α-Adaptin ratio or phosphorylated/total protein ratio and normalized to the control group (Y axis represents ‘fold mean of the control values’).
All data are expressed as mean±SEM. […]

insulin = assay: Plasma insulin (ELISA) and HOMA insulin resistance index after acute oral gavage; type: in vivo; conditions: adult male Wistar rats
Procedure: The protocol was approved by the Ethics Committee for Animal Experiments of the University of Malaga.
D-Pinitol (3-0-methyl-D-chiro-inositol) was generously provided by EURONUTRA SL (https://www.euronutra.com/, Malaga, Spain), in the form of crystalline fine powder (lot: PPN-M0201). For acute treatments, D-Pinitol was dissolved in water to be administered by gavage (orally) at different concentrations (100 mg/Kg and 500 mg/Kg), drug was administered at a volume of 1 ml/kg.
After 18 hours of fasting, D-Pinitol dissolved in water was administered acutely by gavage (100 mg/kg in a first study, and 500 mg/kg in a subsequent study). After administration, the animals were sacrificed in groups at different times (being time 0 the administration of D-Pinitol). For the first study (100 mg/kg), groups of animals were sacrificed at times: 10, 20, 30, 60, 120, 240 and 360 minutes after administration; for the second study (500 mg/kg), animals were sacrificed at times: 60, 120 and 240 minutes after administration. As a control group, a group was administered only with water (by gavage).
Animals were anesthetized with sodium pentobarbital (50 mg/Kg, i.p.), blood, brain and liver samples were collected. Blood was centrifuged (2100 g for 8 min, 4° C.) and the plasma kept for further analysis. Liver and brain samples were flash-frozen in liquid N2, then stored at −80° C. until further analysis.
The plasma levels of insulin and ghrelin were determined with an enzyme-linked immunosorbent assay (ELISA) method using commercial kits: EMD Millipore Corporation (Billerica, Mass., USA) Cat. #EZRMI-13K and Cat. #EZRGRT-91K, respectively. Glucagon levels in plasma was determined with a Glucagon Enzyme Immunoassay (EIA) Kit: Cat. #RAB0202 Sigma-Aldrich (Saint Louis, Mo., USA). All serum samples were assayed in duplicate within one assay, and results were expressed in terms of the particular standard hormone.

In the case of COC1[C@@H](O)[C@@H](O)C(O)[C@H](O)[C@H]1O (stereo partly drawn) [DPIN, (1S,2S,4S,5R)-6-methoxycyclohexane-1,2,3,4,5-pentol], the “amount of p25” value [1] is reported as “significantly decreased”, the “amount of p35 subunit” value [1] is reported as “significantly decreased” and the “total amount of CDK5” value [1] is reported as “does not vary”. The “insulin release into the blood circulation” value (insulin; oral 100 mg/kg, FIG. 2B) was “decreased”, the “insulin resistance measured by the HOMA index” value (insulin; oral 100 mg/kg, FIG. 2C) was “reduction” and the “insulin release into the blood circulation” value (insulin; oral 500 mg/kg, FIG. 3B) was “decreased”. The “insulin resistance measured by the HOMA index” value (insulin; oral 500 mg/kg, FIG. 3D) was “reduction”.
